Values joined by “and” are separate entries in the source; they are usually repeats but may differ in a detail not shown here. Equal values may be shown once.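 Results reflect a 48-hour exposure of cells in 96-well plates to compound at five concentrations. At the GI50, growth is halved.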 Active and inactive are the calls of the source. Rule as the data show it: active = GI50 up to about 1.1 µM and inactive = higher.
Experiments:
Assay in all cases: NCI anticancer screen, dose series, 48 h
786-0 = tested on: 786-0
A498 = tested on: A498
A549 = tested on: A549
ACHN = tested on: ACHN
BT-549 = tested on: BT-549
CAKI-1 = tested on: CAKI-1
CCRF-CEM = tested on: CCRF-CEM
COLO 205 = tested on: COLO 205
DU-145 = tested on: DU-145
EKVX = tested on: EKVX
HCC 2998 = tested on: HCC 2998
HCT-116 = tested on: HCT-116
HCT-15 = tested on: HCT-15
HOP-62 = tested on: HOP-62
HOP-92 = tested on: HOP-92
HT-29 = tested on: HT-29
Hs-578T = tested on: Hs-578T
IGROV-1 = tested on: IGROV-1
K562 = tested on: K562
KM12 = tested on: KM12
LOX IMVI = tested on: LOX IMVI
M14 = tested on: M14
MCF7 = tested on: MCF7
MDA-MB-231 = tested on: MDA-MB-231
MDA-MB-435 = tested on: MDA-MB-435
MOLT-4 = tested on: MOLT-4
Malme-3M = tested on: Malme-3M
NCI-H226 = tested on: NCI-H226
NCI-H23 = tested on: NCI-H23
NCI-H460 = tested on: NCI-H460
NCI-H522 = tested on: NCI-H522
NCI/ADR-RES = tested on: NCI/ADR-RES
OVCAR-3 = tested on: OVCAR-3
OVCAR-4 = tested on: OVCAR-4
OVCAR-5 = tested on: OVCAR-5
OVCAR-8 = tested on: OVCAR-8
PC-3 = tested on: PC-3
RPMI-8226 = tested on: RPMI-8226
RXF 393 = tested on: RXF 393
SF-268 = tested on: SF-268
SF-295 = tested on: SF-295
SF-539 = tested on: SF-539
SK-MEL-28 = tested on: SK-MEL-28
SK-MEL-2 = tested on: SK-MEL-2
SK-MEL-5 = tested on: SK-MEL-5
SN12C = tested on: SN12C
SNB-19 = tested on: SNB-19
SNB-75 = tested on: SNB-75
SR = tested on: SR
SW-620 = tested on: SW-620
T47D = tested on: T47D
TK-10 = tested on: TK-10
U-251 = tested on: U-251
UACC-257 = tested on: UACC-257
UACC-62 = tested on: UACC-62
UO-31 = tested on: UO-31
MDA-N = tested on: MDA-N
SK-OV-3 = tested on: SK-OV-3

Measured: GI50

Cc1nc2ccccc2c(=O)n1-c1n[nH]c2ccccc12
inactive: 786-0 > 100 µM | A498 > 100 µM | A549 > 100 µM | ACHN > 100 µM | BT-549 > 100 µM | CAKI-1 > 100 µM | CCRF-CEM > 100 µM | COLO 205 > 100 µM | DU-145 > 100 µM | EKVX > 100 µM | HCC 2998 > 100 µM | HCT-116 > 100 µM | HOP-62 > 100 µM | HOP-92 > 100 µM | HT-29 > 100 µM | Hs-578T > 100 µM | IGROV-1 > 100 µM | K562 > 100 µM | KM12 > 100 µM | LOX IMVI > 100 µM | M14 > 100 µM | MCF7 > 100 µM | MDA-MB-231 > 100 µM | MDA-MB-435 > 100 µM | MOLT-4 > 100 µM | Malme-3M > 100 µM | NCI-H226 80.5 µM | NCI-H23 > 100 µM | NCI-H460 > 100 µM | NCI-H522 > 100 µM | NCI/ADR-RES > 100 µM | OVCAR-3 > 100 µM | OVCAR-4 > 100 µM | OVCAR-5 > 100 µM | OVCAR-8 > 100 µM | PC-3 > 100 µM | RPMI-8226 > 100 µM | RXF 393 > 100 µM | SF-268 > 100 µM | SF-295 > 100 µM | SF-539 > 100 µM | SK-MEL-28 > 100 µM | SK-MEL-2 > 100 µM | SK-MEL-5 > 100 µM | SN12C > 100 µM | SNB-19 > 100 µM | SNB-75 > 100 µM | SR > 100 µM | SW-620 > 100 µM | T47D > 100 µM | TK-10 > 100 µM | U-251 > 100 µM | UACC-257 > 100 µM | UACC-62 > 100 µM | UO-31 > 100 µM
> 100 µM: HCT-15

CCOC(=O)[C@]1(OC(C)=O)C[C@H](OC(C)=O)[C@@H](C(F)COP(=O)(OCc2ccccc2)OCc2ccccc2)O1 (some centres undefined)
inactive: A549 > 100 µM | BT-549 > 100 µM | CAKI-1 > 100 µM | CCRF-CEM 72.9 µM and 49 µM | DU-145 > 100 µM | HCC 2998 76.2 µM | HOP-62 > 100 µM | HOP-92 18.5 µM | Hs-578T > 100 µM | K562 71.4 µM | MDA-MB-231 57.3 µM | MDA-N > 100 µM | MOLT-4 > 100 µM | NCI-H226 > 100 µM | NCI/ADR-RES > 100 µM | OVCAR-8 > 100 µM | PC-3 32.4 µM and 58.6 µM | RPMI-8226 19.8 µM and 25.9 µM | SF-268 > 100 µM | SF-539 > 100 µM | SK-MEL-28 > 100 µM | SK-MEL-5 > 100 µM | SK-OV-3 > 100 µM | SN12C > 100 µM | SNB-75 > 100 µM | UACC-257 76.2 µM

COc1cc2c(cc1OC)C(N)CC2=O (centres undefined)
> 100 µM: HCT-15
inactive: 786-0 > 100 µM | A498 > 100 µM | A549 > 100 µM | ACHN > 100 µM | BT-549 > 100 µM | CAKI-1 > 100 µM | CCRF-CEM > 100 µM | COLO 205 > 100 µM | DU-145 > 100 µM | EKVX > 100 µM | HCC 2998 > 100 µM | HCT-116 > 100 µM | HOP-62 > 100 µM | HOP-92 > 100 µM | HT-29 > 100 µM | Hs-578T > 100 µM | IGROV-1 > 100 µM | K562 > 100 µM | KM12 > 100 µM | LOX IMVI > 100 µM | M14 > 100 µM | MCF7 > 100 µM | MDA-MB-231 > 100 µM | MDA-MB-435 > 100 µM | MOLT-4 > 100 µM | NCI-H226 9.06 µM | NCI-H23 > 100 µM | NCI-H522 > 100 µM | NCI/ADR-RES > 100 µM | OVCAR-3 > 100 µM | OVCAR-4 > 100 µM | OVCAR-5 > 100 µM | OVCAR-8 > 100 µM | PC-3 > 100 µM | RPMI-8226 > 100 µM | RXF 393 > 100 µM | SF-268 > 100 µM | SF-295 > 100 µM | SF-539 > 100 µM | SK-MEL-28 > 100 µM | SK-MEL-2 > 100 µM | SK-MEL-5 > 100 µM | SK-OV-3 > 100 µM | SN12C > 100 µM | SNB-19 > 100 µM | SNB-75 > 100 µM | SR > 100 µM | SW-620 > 100 µM | T47D > 100 µM | TK-10 > 100 µM | U-251 > 100 µM | UACC-257 > 100 µM | UACC-62 > 100 µM | UO-31 > 100 µM

COc1ccc(-c2c(C#N)c(-c3ccc(C)cc3)n(NS(=O)(=O)c3ccc(C)cc3)c(=O)c2C#N)cc1
inactive: 786-0 86.5 µM | A498 92 µM | A549 41 µM | ACHN 50.6 µM | BT-549 33.9 µM | CAKI-1 63.7 µM | CCRF-CEM 23.7 µM | COLO 205 90.2 µM | EKVX 53.5 µM | HCC 2998 62.1 µM | HCT-116 38.5 µM | HOP-62 39.7 µM | HOP-92 74.6 µM | HT-29 44.1 µM | Hs-578T 25.1 µM | IGROV-1 39.5 µM | K562 57 µM | KM12 24.8 µM | LOX IMVI 39.3 µM | M14 55.2 µM | MCF7 24.5 µM | MDA-MB-231 > 100 µM | MDA-MB-435 65.9 µM | MDA-N 75 µM | MOLT-4 19.8 µM | Malme-3M > 100 µM | NCI-H226 > 100 µM | NCI-H460 54.3 µM | NCI-H522 80.7 µM | NCI/ADR-RES 53.7 µM | OVCAR-4 31.3 µM | OVCAR-5 > 100 µM | OVCAR-8 72.3 µM | PC-3 36.6 µM | RPMI-8226 17.3 µM | RXF 393 38.8 µM | SF-268 56.6 µM | SF-295 37.8 µM | SF-539 32.4 µM | SK-MEL-28 61.1 µM | SK-MEL-2 58.9 µM | SK-MEL-5 23.5 µM | SK-OV-3 70.5 µM | SN12C 66.2 µM | SNB-19 47.4 µM | SNB-75 31.2 µM | SW-620 49.5 µM | TK-10 87.3 µM | U-251 53.6 µM | UACC-257 > 100 µM | UACC-62 43.6 µM
60.3 µM: HCT-15

— ChEMBL document CHEMBL1201862, “PubChem BioAssay data set” (2004)
